Source: article PMC5704035 (Biochemistry and Biophysics Reports, 2017)

Molecular target: AzoA (Enterococcus faecalis, UniProt Q831B2)
Experiment: spectroscopy of purified protein, FMN to protein molar ratio
Type: binding
Conditions: co-purified flavin; two sites per homodimer

Chain of AzoA (Q831B2 whole entry): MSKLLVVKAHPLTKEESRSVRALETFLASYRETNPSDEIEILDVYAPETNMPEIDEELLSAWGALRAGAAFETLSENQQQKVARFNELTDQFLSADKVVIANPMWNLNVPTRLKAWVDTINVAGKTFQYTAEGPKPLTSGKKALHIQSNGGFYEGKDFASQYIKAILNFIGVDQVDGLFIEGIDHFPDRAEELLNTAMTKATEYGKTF

Cc1cc2nc3c(=O)[nH]c(=O)nc-3n(C[C@H](O)[C@H](O)[C@H](O)COP(=O)(O)O)c2cc1C [FMN]
spectroscopy of purified protein, FMN to protein molar ratio: suggesting that two FMN molecules bind to an AzoA (wild-type and mutants)
